EC50 data for 27 compounds are collected here from patent publication US9018208B2, “Heterocycles as potassium channel modulators” (Icagen Inc., priority 2007, dated 2015).

The subject of one assay is SH-SY5Y M-currents (KCNQ2, KCNQ3 and KCNQ5). The assay is described as follows: SH-SY5Y native cell line FLIPR assay (voltage-sensitive dye DiBAC). Type of assay: cell-based, mouse neuroblastoma, rat glioma hybrid cell line. The following applies: FLIPR assay, SH-SY5Y native cell line; Table 1; read-out: SH-SY5Y EC50. The method in brief:
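Response is peak DiBAC fluorescence change, normalised to the maximum from a positive control agent, sampled every 30 s over 25 min. Before compound addition, SH-SY5Y cells differentiated with PGE1 plus isomethylbutylxanthine were dye-loaded for 1 h in EBSS with […] DiBAC.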
As to `O=C(Nc1nc2ccc(F)cn2c1I)C(F)(F)F` [Compound 11, 2,2,2-trifluoro-N-(6-fluoro-3-iodoimidazo[1,2-a]pyridin-2-yl)acetamide], the EC50 was 3000 to 10000 nM.

As to `CC(C)(C)Cc1c(NC(=O)Cc2ccc(C(F)(F)F)cc2)nc2ccc(C(F)(F)F)cn12` [Compound 61, N-(3-neopentyl-6-(trifluoromethyl)imidazo[1,2-a]pyridin-2-yl)-2-(4-(trifluoromethyl)phenyl)acetamide], the EC50 was less than 500 nM. On the same count and under the same terms, next, `O=C(Cc1cccc(Cl)c1)Nc1nc2ccc(C(F)(F)F)cn2c1C1CCCCC1` [Compound 44, 2-(3-chlorophenyl)-N-(3-cyclohexyl-6-(trifluoromethyl)imidazo[1,2-a]pyridin-2-yl)acetamide]: less than 500 nM.

Staying with this assay, now noted: FLIPR assay, SH-SY5Y native cell line; Table 2; read-out: SH-SY5Y EC50.
On to `O=C(Cc1ccc(F)cc1)Nc1nc2ccc(F)cn2c1-c1cccc(C(F)(F)F)c1` [Compound 164, N-(6-fluoro-3-(3-(trifluoromethyl)phenyl)imidazo[1,2-a]pyridin-2-yl)-2-(4-fluorophenyl)acetamide], for which the EC50 is less than 500 nM. On the same count and under the same terms, next, `Cc1ccc2nc(NC(=O)CC(C)(C)C)c(-c3ccc(F)cc3)n2c1` [Compound 167, N-(3-(4-fluorophenyl)-6-methylimidazo[1,2-a]pyridin-2-yl)-3,3-dimethylbutanamide]: less than 500 nM.

On to `O=C(CC1CCC1)Nc1nc2ccc(F)cn2c1-c1cccc(C(F)(F)F)c1` [Compound 270, 2-cyclobutyl-N-(6-fluoro-3-(3-(trifluoromethyl)phenyl)imidazo[1,2-a]pyridin-2-yl)acetamide], for which the EC50 is less than 500 nM. Still for that read-out and setting: next, `CC(C)(CO)CC(=O)Nc1nc2ccc(F)cn2c1-c1ccc(C(F)(F)F)cc1` [Compound 190, N-(6-fluoro-3-(4-(trifluoromethyl)phenyl)imidazo[1,2-a]pyridin-2-yl)-4-hydroxy-3,3-dimethylbutanamide]: 3000 to 10000 nM; `CC(C)C(C)C(=O)Nc1nc2ccc(F)cn2c1-c1ccc(OC(F)(F)F)cc1` (stereo not shown) [Compound 249, N-(6-fluoro-3-(4-(trifluoromethoxy)phenyl)imidazo[1,2-a]pyridin-2-yl)-2,3-dimethylbutanamide]: less than 500 nM; `CC(C)(C)CC(=O)Nc1nc2ccc(Cl)cn2c1-c1ccc(F)cc1` [Compound 130, N-(6-chloro-3-(4-fluorophenyl)imidazo[1,2-a]pyridin-2-yl)-3,3-dimethylbutanamide]: less than 500 nM.

For the compound `O=C(CC1CC1)Nc1nc2ccc(F)cn2c1-c1ccc(OC(F)(F)F)cc1` [Compound 171, 2-cyclopropyl-N-(6-fluoro-3-(4-(trifluoromethoxy)phenyl)imidazo[1,2-a]pyridin-2-yl)acetamide], the EC50 is 500 to 3000 nM. Still for that read-out and setting: next, `CC(C)(C)OCCC(=O)Nc1nc2ccc(F)cn2c1-c1cccc(OC(F)(F)F)c1` [Compound 277, 3-tert-butoxy-N-(6-fluoro-3-(3-(trifluoromethoxy)phenyl)imidazo[1,2-a]pyridin-2-yl)propanamide]: less than 500 nM. On the same count and under the same terms, next, `O=C(CCC1CC1)Nc1nc2ccc(F)cn2c1-c1ccc(OC(F)(F)F)cc1` [Compound 172, 3-cyclopropyl-N-(6-fluoro-3-(4-(trifluoromethoxy)phenyl)imidazo[1,2-a]pyridin-2-yl)propanamide]: 500 to 3000 nM. The same measure, in the same setting: next, `O=C(CC1CCCC1)Nc1nc2ccc(F)cn2c1-c1ccccc1` [Compound 94, 2-cyclopentyl-N-(6-fluoro-3-phenylimidazo[1,2-a]pyridin-2-yl)acetamide]: less than 500 nM.

For the compound `O=C(Cc1ccccc1)Nc1nc2ccc(F)cn2c1-c1ccc(F)cc1` [Compound 106, N-(6-fluoro-3-(4-fluorophenyl)imidazo[1,2-a]pyridin-2-yl)-2-phenylacetamide], the EC50 was 500 to 3000 nM. Still for that read-out and setting: next, `O=C(Cc1ccc(F)cc1)Nc1nc2ccc(Cl)nn2c1-c1ccc(C(F)(F)F)cc1` [Compound 272, N-(6-chloro-3-(4-(trifluoromethyl)phenyl)imidazo[1,2-b]pyridazin-2-yl)-2-(4-fluorophenyl)acetamide]: 500 to 3000 nM; `O=C(Cc1cccc(F)c1)Nc1nc2ccc(F)cn2c1-c1ccc(OC(F)(F)F)cc1` [Compound 240, N-(6-fluoro-3-(4-(trifluoromethoxy)phenyl)imidazo[1,2-a]pyridin-2-yl)-2-(3-fluorophenyl)acetamide]: less than 500 nM.

As to `CC(C)(C)CC(=O)Nc1nc2ncc(Cl)cn2c1-c1cccc(Cl)c1` [Compound 319, N-(6-chloro-3-(3-chlorophenyl)imidazo[1,2-a]pyrimidin-2-yl)-3,3-dimethylbutanamide], the EC50 is 3000 to 10000 nM. Same read-out and setting: next, `CC(C)C(C)C(=O)Nc1nc2ccc(F)cn2c1-c1ccc(OC(F)(F)F)c(F)c1` (stereo not shown) [Compound 312, N-(6-fluoro-3-(3-fluoro-4-(trifluoromethoxy)phenyl)imidazo[1,2-a]pyridin-2-yl)-2,3-dimethylbutanamide]: less than 500 nM; `CC(CC(=O)Nc1nc2ccc(F)cn2c1-c1ccc(OC(F)(F)F)cc1)C(F)(F)F` (stereo not shown) [Compound 195, 4,4,4-trifluoro-N-(6-fluoro-3-(4-(trifluoromethoxy)phenyl)imidazo[1,2-a]pyridin-2-yl)-3-methylbutanamide]: less than 500 nM. On the same count and under the same terms, next, `CC(CC(=O)Nc1nc2ncccn2c1-c1cccc(Cl)c1)C(F)(F)F` (stereo not shown) [Compound 331, N-(3-(3-chlorophenyl)imidazo[1,2-a]pyrimidin-2-yl)-4,4,4-trifluoro-3-methylbutanamide]: 3000 to 10000 nM.

The assay is the same for the next values; noted with them: FLIPR assay, SH-SY5Y native cell line; Table 4; read-out: SH-SY5Y EC50.
In the case of `Cc1cccc2nc(NC(=O)CC(C)(C)C)c(-c3cccc(C(F)(F)F)c3)n12` [Compound 419, 3,3-dimethyl-N-(5-methyl-3-(3-(trifluoromethyl)phenyl)imidazo[1,2-a]pyridin-2-yl)butanamide], the EC50 was less than 500 nM.

The same assay, now with this note: FLIPR assay, SH-SY5Y native cell line; Table 5; read-out: SH-SY5Y EC50.
With `C=Cc1c(NC(=O)Cc2ccc(F)cc2)nc2ccc(F)cn12` [Compound 425, N-(6-fluoro-3-vinylimidazo[1,2-a]pyridin-2-yl)-2-(4-fluorophenyl)acetamide], the EC50 lay within 500 to 3000 nM. In the case of `C=Cc1c(NC(=O)CC(F)(F)F)nc2cc(C(F)(F)F)ccn12` [Compound 427, 3,3,3-trifluoro-N-(7-(trifluoromethyl)-3-vinylimidazo[1,2-a]pyridin-2-yl)propanamide], the EC50 was in the range of 3000 to 10000 nM.

The assay is the same for the next values; noted with them: SH-SY5Y native cell line, FLIPR assay (Table 3); read-out: SH-SY5Y EC50.
As to `CC(CC(=O)Nc1nc2ccc(F)cn2c1-c1nc2ccccc2s1)C(F)(F)F` (stereo not shown) [Compound 374, N-(3-(benzo[d]thiazol-2-yl)-6-fluoroimidazo[1,2-a]pyridin-2-yl)-4,4,4-trifluoro-3-methylbutanamide], the EC50 lay within 3000 to 10000 nM. Consider `O=C(Nc1nc2ccccn2c1-c1nccs1)C1CCC(F)(F)CC1` [Compound 409, 4,4-difluoro-N-(3-(thiazol-2-yl)imidazo[1,2-a]pyridin-2-yl)cyclohexanecarboxamide], for which the EC50 was 500 to 3000 nM. The same measure, in the same setting: next, `CC(C)(C)CC(=O)Nc1nc2ccc(F)cn2c1-c1cccc(C(F)(F)F)n1` [Compound 361, N-(6-fluoro-3-(6-(trifluoromethyl)pyridin-2-yl)imidazo[1,2-a]pyridin-2-yl)-3,3-dimethylbutanamide]: less than 500 nM; `O=C(Cc1ccc(F)cc1)Nc1nc2ccc(C(F)(F)F)cn2c1-c1cc(C(F)(F)F)ccn1` [Compound 400, 2-(4-fluorophenyl)-N-(6-(trifluoromethyl)-3-(4-(trifluoromethyl)pyridin-2-yl)imidazo[1,2-a]pyridin-2-yl)acetamide]: less than 500 nM.

Staying with this assay, now noted: unit inferred; read-out: SH-SY5Y_EC50.
For `Cc1cccc2nc(NC(=O)CC(C)(C)C)c(-c3cccc(C(F)(F)F)c3)n12` [Compound 419, 3,3-dimethyl-N-(5-methyl-3-(3-(trifluoromethyl)phenyl)imidazo[1,2-a]pyridin-2-yl)butanamide], the EC50 stood at 340 nM.
